This is an account of results in patent US20080161340A1, “Tetrahydroquinilinones, tetrahydronaphthyridones and derivatives thereof” (priority 2006, published 2008).

SMILES strings stand for the structures. pEC50: −log10 of the molar value. Where only a bound is given, the exact number is not on record here.

Holding throughout (type): cell-based
One test deals with T1, hCB2 (Homo sapiens, UniProt P34972).
T1 construct: host or cells: CHO-K1
The test can be described thus: cAMP assay (LANCE TR-FRET) in CHO-K1 cells stably expressing hCB2, agonist/inverse agonist. The note with it: intracellular cAMP, CHO-K1 hCB2 cells prestimulated with NKH-477; + agonist, − inverse agonist. The procedure:
(§1) The ability of compounds to act as agonists or inverse agonists at human CB2 and CB1 receptors (hCB2, hCB1, respectively) was determined by measuring changes in intracellular cAMP levels. Chinese Hamster Ovary (CHO-K1) cell lines stably expressing hCB2 (Genebank: X74328) or hCB1 (Genebank: X54937) were purchased from Euroscreen (Gosselies, Belgium).
(§2) Cell lines were grown in suspension in EX-CELL 302 CHO Serum-free medium (Sigma, cat #14324C) supplemented with 1% Fetal Bovine Serum, glutamine and non-essential amino-acids under 0.4 mg/mL G418 selection.
(§3) Receptor mediated responses were determined by measuring changes in intracellular cAMP using LANCE cAMP detection kit (cat #AD0264, PerkinElmer, Wellesley, Mass.) based on time-resolved fluorescence resonance energy transfer (TR-FRET). Changes in cAMP were determined in cells pre-incubated with IBMX (isobutyl methylxanthine) and prestimulated with NKH-477 (a water soluble forskolin derivative, cat #1603, Tocris, Ellisville, Mo.) to increase basal cAMP levels as detailed below.
(§4) On the day of the experiment, cells were spun at low speed for 5 min at room temperature. The supernatant was removed and cells were resuspended in stimulation buffer (Hanks Buffered Salt Solution/5 mM HEPES, containing 0.5 mM IBMX (cat #17018, Sigma) and 0.02% BSA (PerkinElmer, cat #CR84-100)). Cell clumps were removed by filtering through cell strainer 40 μm (BD Falcon, Discovery Labware, Bedford, Mass.) and diluted to 2×10^5 cells/mL. Antibody supplied with the LANCE cAMP immunoassay kit was then added according to the manufacturer's instructions. An aliquot of cells was taken for un-induced controls. To the remaining cells was added NKH-477 (a water soluble forskolin derivative, Tocris cat #1603) to a final concentration of 2-8 μM. Cells were then incubated for 30 min at room temperature prior to adding to Proxiplates containing test compounds (final DMSO concentration was less than 0.5%) with a Multidrop bulk dispenser, followed by a sixty minute incubation at room temperature. The response was stopped by addition of the detection mix supplied with the LANCE kit.
(§5) The reagents were allowed to equilibrate for three hours prior to reading on an Envision multi-mode detector (PerkinElmer). TR-FRET was measured using a 330-380 nm excitation filter, a 665 nm emission filter, dichroic mirror 380 nm and Z=1 mm.
(§6) Cyclic AMP concentrations in each well were back-calculated from a cAMP standard curve run concurrently during each assay. Each plate contained 16 wells of forskolin stimulated cells and 16 wells of forskolin plus CP55,940-treated. CP55,940-treated cells were treated with CP55,940 (Tocris cat. # 0949) at 1 μm and the maximal response was used as the full range (100%) standard. WIN55,212 (Tocris cat. # 1038) was used as an internal standard. Concentrations of cAMP were expressed as a percent of the difference of these two groups of wells. Concentration-response data including ECso (the concentration of compound producing 50% of the maximal response) and intrinsic activity (the percent maximal activation compared to full activation by CP55,940) were determined using a four-parameter non-linear regression algorithm (Xlfit equation 251, IDBS).

A further test deals with T2, rCB2 (Rattus norvegicus, UniProt Q9QZN9).
T2 sequence (Q9QZN9 1-360): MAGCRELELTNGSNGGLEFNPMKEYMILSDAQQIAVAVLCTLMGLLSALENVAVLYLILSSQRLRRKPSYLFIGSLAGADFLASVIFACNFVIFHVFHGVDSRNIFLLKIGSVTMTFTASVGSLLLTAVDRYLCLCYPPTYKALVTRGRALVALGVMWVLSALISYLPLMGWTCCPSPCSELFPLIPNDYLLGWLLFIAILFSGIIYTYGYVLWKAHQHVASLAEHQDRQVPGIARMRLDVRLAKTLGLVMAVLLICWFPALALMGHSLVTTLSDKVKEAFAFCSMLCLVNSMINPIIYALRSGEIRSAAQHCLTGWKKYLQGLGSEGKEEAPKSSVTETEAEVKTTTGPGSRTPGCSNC
The test can be described thus: cAMP assay, rCB2 in Table 7, agonist/inverse agonist. The conditions noted are these: intracellular cAMP; + agonist, − inverse agonist. The procedure:
as §3, §4, §5, §6
(cAMP levels reflect the balance of adenylyl cyclase and phosphodiesterase activity.)

The target of another test is T3, hCB1 (Homo sapiens, UniProt P21554).
T3 construct: host or cells: CHO-K1
As to the kind of experiment: cAMP assay (LANCE TR-FRET) in CHO-K1 cells stably expressing hCB1, agonist/inverse agonist. The conditions noted are these: intracellular cAMP, CHO-K1 hCB1 cells prestimulated with NKH-477, + agonist, − inverse agonist; for pEC50: read-out: hCB1 EC50 class. Here is the method: as §1, §2, §3, §4, §5, §6

T3 sequence (P21554 whole entry): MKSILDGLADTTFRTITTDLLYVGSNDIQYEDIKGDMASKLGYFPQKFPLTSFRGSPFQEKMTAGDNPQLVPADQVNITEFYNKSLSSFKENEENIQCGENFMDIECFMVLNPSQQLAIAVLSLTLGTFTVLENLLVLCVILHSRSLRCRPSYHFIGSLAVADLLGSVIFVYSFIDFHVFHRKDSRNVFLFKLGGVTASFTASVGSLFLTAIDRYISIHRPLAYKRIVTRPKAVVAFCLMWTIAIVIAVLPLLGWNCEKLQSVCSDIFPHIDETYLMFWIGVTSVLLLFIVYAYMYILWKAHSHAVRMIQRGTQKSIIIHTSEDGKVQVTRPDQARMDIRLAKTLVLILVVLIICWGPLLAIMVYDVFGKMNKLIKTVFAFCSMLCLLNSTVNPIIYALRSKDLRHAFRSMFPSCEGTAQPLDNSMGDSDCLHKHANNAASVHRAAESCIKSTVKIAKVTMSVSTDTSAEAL
T1 sequence (P34972 whole entry): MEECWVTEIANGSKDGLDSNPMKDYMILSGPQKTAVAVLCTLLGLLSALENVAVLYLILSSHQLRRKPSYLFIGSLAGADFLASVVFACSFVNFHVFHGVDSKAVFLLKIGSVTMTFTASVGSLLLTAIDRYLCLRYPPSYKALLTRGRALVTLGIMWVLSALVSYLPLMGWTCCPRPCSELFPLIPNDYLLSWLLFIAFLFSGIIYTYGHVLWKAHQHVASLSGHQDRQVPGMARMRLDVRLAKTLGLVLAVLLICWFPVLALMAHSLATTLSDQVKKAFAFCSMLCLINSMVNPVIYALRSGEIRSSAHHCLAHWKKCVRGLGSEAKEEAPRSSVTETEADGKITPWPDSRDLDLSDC

Turning to `O=c1c(-c2cccc(Cl)c2)cc2c(n1CC1CCCCC1)CCCC2` [Compound 25, 3-(3-chlorophenyl)-1-(cyclohexylmethyl)-5,6,7,8-tetrahydroquinolm-2(1H)-one], on hCB2, the “hCB2 EC50 class” value is “+B”. For the same molecule, the “rCB2 EC50 class” value at rCB2 is recorded as “+A”. For the same molecule, the “hCB1 EC50 class” value on hCB1 is reported as “+B”.

Turning to `O=c1c(-c2cccc(Cl)c2)cc2c(n1CC1CC1)CCCC2` [Compound 22, 3-(3-chlorophenyl)-1-(cyclopropylmethyl)-5,6,7,8-tetrahydroquinolin-2(1H)-one], at hCB2, the “hCB2 EC50 class” value is “+B”. The “rCB2 EC50 class” value on rCB2 is listed as “−B”. The pEC50 (usually −log10 of the EC50, conventionally taken in molar units) on hCB1 is below 5.00.

As to `O=c1c(Cc2ccccc2)cc2c(n1CC1CCC1)CCCC2` [Compound 34, 3-benzyl-1-(cyclobutylmethyl)-5,6,7,8-tetrahydroquinolin-2(1H)-one], the “hCB2 EC50 class” value at hCB2 is “+B”. For the same molecule, the “rCB2 EC50 class” value at rCB2 is listed as “+B”. For the same molecule, the pEC50 at hCB1 was below 5.00.

For `O=c1c(Cc2ccncc2)cc2c(n1CC1CCC1)CCCC2` [Compound 32, 1-(cyclobutylmethyl)-3-(pyridin-4-ylmethyl)-5,6,7,8-tetrahydroquinolin-2(1H)-one], the “hCB2 EC50 class” value on hCB2 is on record as “+B”. The “rCB2 EC50 class” value at rCB2 was “+B”. Besides, the negative-log EC50 (pEC50) on hCB1 was below 5.00.

As to `O=c1c(-c2cccc(Cl)c2)cc2c(n1CC1CCC1)CCCC2` [Compound 8, 3-(3-chlorophenyl)-1-(cyclobutylmethyl)-5,6,7,8-tetrahydroquinolin-2(1H)-one], on hCB2, the “hCB2 EC50 class” value is on record as “+A”. The “rCB2 EC50 class” value on rCB2 is on record as “+A”. Further, at hCB1, the pEC50 was below 5.00.

With `O=c1c(-c2ccc(C(F)(F)F)cc2)cc2c(n1CC1CCC1)CCCC2` [Compound 7, 1-(cyclobutylmethyl)-3-(4-(trifluoromethyl)phenyl)-5,6,7,8-tetrahydroquinolin-2(1H)-one], at hCB2, the “hCB2 EC50 class” value is on record as “+A”. Further, the “rCB2 EC50 class” value at rCB2 is listed as “+A”. Besides, the negative logarithm of the EC50 (pEC50) on hCB1 was below 5.00.

As to `O=c1c(-c2ccccc2C(F)(F)F)cc2c(n1CC1CCC1)CCCC2` [Compound 20, 1-(cyclobutylmethyl)-3-(2-(trifluoromethyl)phenyl)-5,6,7,8-tetrahydroquinolin-2(1H)-one], on hCB2, the “hCB2 EC50 class” value is “+B”. The “rCB2 EC50 class” value on rCB2 was “+B”. Besides, the pEC50 on hCB1 was below 5.00.

On to `CS(=O)(=O)N1CCc2c(cc(-c3ccc(C(F)(F)F)cc3)c(=O)n2CC2CCC2)C1` [Compound 43, 1-(cyclobutylmethyl)-6-(methylsulfonyl)-3-(4-(trifluoromethyl)phenyl)-5,6,7,8-tetrahydro-1,6-naphthyridin-2(1H)-one], for which the “hCB2 EC50 class” value at hCB2 is given as “+A”. Besides, on rCB2, the “rCB2 EC50 class” value is given as “+B”. In addition, the pEC50 at hCB1 is below 5.00.

Take `O=c1c(-c2ccoc2)cc2c(n1CC1CCC1)CCCC2` [Compound 12, 1-(cyclobutylmethyl)-3-(furan-3-yl)-5,6,7,8-tetrahydroquinolin-2(1H)-one]: the “hCB2 EC50 class” value on hCB2 was “+C”. On rCB2, the “rCB2 EC50 class” value was “+B”. Further, the pEC50 at hCB1 was below 5.00.

As for `CC(C)CS(=O)(=O)N1CCc2c(cc(-c3cccc(Cl)c3)c(=O)n2CC2CC2)C1` [Compound 50, 3-(3-chlorophenyl)-1-(cyclopropylmethyl)-6-(isobutylsulfonyl)-5,6,7,8-tetrahydro-1,6-naphthyridin-2(1H)-one], the “hCB2 EC50 class” value at hCB2 is “+C”. Moreover, the “rCB2 EC50 class” value on rCB2 is given as “−B”. In addition, at hCB1, the “hCB1 EC50 class” value is given as “−B”.

As to `O=c1c(-c2ccc(Cl)cc2)cc2c(n1CC1CCC1)CCCC2` [Compound 19, 3-(4-chlorophenyl)-1-(cyclobutylmethyl)-5,6,7,8-tetrahydroquinolin-2(1H)-one], the “hCB2 EC50 class” value at hCB2 is “+B”. Moreover, the “rCB2 EC50 class” value at rCB2 is “+B”. Also, the pEC50 at hCB1 is below 5.00.
